# Experiments:
# [1] = test system: Pseudomonas fluorescens FW300-N2E2
# How it was run: (§1)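 Washed cells (final OD600 0.02, 80 µL) were added to 384-well plates of serially diluted inorganic ion salts or equimolar nitrilotriacetic acid complexes. Aerobic plates were shaken at 700 rpm at 30 °C, and anaerobic plates were left unshaken. OD600 was read at 24 h (48 h for R2A strain comparisons) and scaled between water and growth-blocking antibiotic controls, dropping wells with precipitate. IC50 came from drc R package fits of at least two biological replicate curves.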
# [2] = test system: Rhodanobacter sp. FW104-10B01
# How it was run: as §1
# [3] = medium / electron acceptor: N2E2 Glucose/aerobic
# [4] = medium / electron acceptor: N2E2 Glucose/aerobic 0.25xMinerals
# [5] = medium / electron acceptor: N2E2 Glucose/aerobic (2)
# [6] = medium / electron acceptor: N2E2 KB/aerobic
# [7] = medium / electron acceptor: N2E2 LB/aerobic
# [8] = medium / electron acceptor: N2E2 LB/aerobic (2)
# [9] = medium / electron acceptor: N2E2 LB/nitrate
# [10] = medium / electron acceptor: N2E2 Lactate/aerobic
# [11] = medium / electron acceptor: N2E2 R2A/aerobic
# [12] = medium / electron acceptor: 10B01 R2A/aerobic
# [13] = medium / electron acceptor: 10B01 R2A/nitrate
structure (smiles),measurement,setting,value
O=[Si](O)O [Sodium metasilicate],IC50 growth inhibition,[1]; [3],< 0.244 mM
same,IC50 growth inhibition,[1]; [4],< 0.244 mM
same,IC50 growth inhibition,[1]; [5],< 0.244 mM
same,IC50 growth inhibition,[1]; [6],< 0.244 mM
same,IC50 growth inhibition,[1]; [7],< 0.244 mM
same,IC50 growth inhibition,[1]; [8],< 0.244 mM
same,IC50 growth inhibition,[1]; [9],< 0.244 mM
same,IC50 growth inhibition,[1]; [10],< 0.244 mM
same,IC50 growth inhibition,[1]; [11],< 0.244 mM
same,IC50 growth inhibition,[2]; [12],< 0.244 mM
same,IC50 growth inhibition,[2]; [13],< 0.244 mM
[Na+].[O]=[V](=[O])[O-] [Sodium metavanadate],IC50 growth inhibition,[1]; [3],0.0793 mM
same,IC50 growth inhibition,[1]; [4],0.432 mM
same,IC50 growth inhibition,[1]; [5],0.0997 mM
same,IC50 growth inhibition,[1]; [6],< 0.0244 mM
same,IC50 growth inhibition,[1]; [7],3.26 mM
same,IC50 growth inhibition,[1]; [8],13.4 mM
same,IC50 growth inhibition,[1]; [9],6.94 mM
same,IC50 growth inhibition,[1]; [10],2.34 mM
same,IC50 growth inhibition,[1]; [11],8.62 mM
same,IC50 growth inhibition,[2]; [12],> 50 mM
same,IC50 growth inhibition,[2]; [13],> 50 mM
[Na+].[Na+].[O]=[Mo](=[O])([O-])[O-] [Sodium molybdate],IC50 growth inhibition,[1]; [3],20.3 mM
same,IC50 growth inhibition,[1]; [4],2.62 mM
same,IC50 growth inhibition,[1]; [5],3.39 mM
same,IC50 growth inhibition,[1]; [6],337 mM
same,IC50 growth inhibition,[1]; [7],369 mM
same,IC50 growth inhibition,[1]; [8],354 mM
same,IC50 growth inhibition,[1]; [9],214 mM
same,IC50 growth inhibition,[1]; [10],162 mM
same,IC50 growth inhibition,[1]; [11],231 mM
same,IC50 growth inhibition,[2]; [12],354 mM
same,IC50 growth inhibition,[2]; [13],262 mM
O=[N+]([O-])[O-].[Na+] [Sodium nitrate],IC50 growth inhibition,[1]; [3],275 mM
same,IC50 growth inhibition,[1]; [4],> 500 mM
same,IC50 growth inhibition,[1]; [5],324 mM
same,IC50 growth inhibition,[1]; [6],354 mM
same,IC50 growth inhibition,[1]; [7],354 mM
same,IC50 growth inhibition,[1]; [8],383 mM
same,IC50 growth inhibition,[1]; [9],> 500 mM
same,IC50 growth inhibition,[1]; [10],354 mM
same,IC50 growth inhibition,[1]; [11],400 mM
same,IC50 growth inhibition,[2]; [12],> 500 mM
same,IC50 growth inhibition,[2]; [13],> 500 mM
O=NO [Sodium nitrite],IC50 growth inhibition,[1]; [3],17.3 mM
same,IC50 growth inhibition,[1]; [4],6.63 mM
same,IC50 growth inhibition,[1]; [5],3.89 mM
same,IC50 growth inhibition,[1]; [6],15.3 mM
same,IC50 growth inhibition,[1]; [7],22.8 mM
same,IC50 growth inhibition,[1]; [8],41.6 mM
same,IC50 growth inhibition,[1]; [9],14.8 mM
same,IC50 growth inhibition,[1]; [10],23 mM
same,IC50 growth inhibition,[1]; [11],8.81 mM
same,IC50 growth inhibition,[2]; [12],> 50 mM
same,IC50 growth inhibition,[2]; [13],> 50 mM
[O-][Cl+3]([O-])([O-])O [Sodium perchlorate monohydrate],IC50 growth inhibition,[1]; [3],67.2 mM
same,IC50 growth inhibition,[1]; [4],356 mM
same,IC50 growth inhibition,[1]; [5],117 mM
same,IC50 growth inhibition,[1]; [6],82 mM
same,IC50 growth inhibition,[1]; [7],95 mM
same,IC50 growth inhibition,[1]; [8],106 mM
same,IC50 growth inhibition,[1]; [9],69.8 mM
same,IC50 growth inhibition,[1]; [10],235 mM
same,IC50 growth inhibition,[1]; [11],89.4 mM
same,IC50 growth inhibition,[2]; [12],354 mM
same,IC50 growth inhibition,[2]; [13],5.54 mM
[O-][I+3]([O-])([O-])O [Sodium periodate],IC50 growth inhibition,[1]; [3],5.52 mM
same,IC50 growth inhibition,[1]; [4],2.35 mM
same,IC50 growth inhibition,[1]; [5],1.56 mM
same,IC50 growth inhibition,[1]; [6],0.326 mM
same,IC50 growth inhibition,[1]; [7],0.813 mM
same,IC50 growth inhibition,[1]; [8],2.35 mM
same,IC50 growth inhibition,[1]; [9],0.146 mM
same,IC50 growth inhibition,[1]; [10],27.4 mM
same,IC50 growth inhibition,[1]; [11],0.772 mM
same,IC50 growth inhibition,[2]; [12],0.101 mM
same,IC50 growth inhibition,[2]; [13],0.0825 mM
O=P([O-])(O)O.[Na+] [Sodium phosphate monobasic monohydrate],IC50 growth inhibition,[1]; [3],50.2 mM
same,IC50 growth inhibition,[1]; [4],> 500 mM
same,IC50 growth inhibition,[1]; [5],73.8 mM
same,IC50 growth inhibition,[1]; [6],308 mM
same,IC50 growth inhibition,[1]; [7],307 mM
same,IC50 growth inhibition,[1]; [8],354 mM
same,IC50 growth inhibition,[1]; [9],2.25 mM
same,IC50 growth inhibition,[1]; [10],30.3 mM
same,IC50 growth inhibition,[1]; [11],15.7 mM
same,IC50 growth inhibition,[2]; [12],354 mM
same,IC50 growth inhibition,[2]; [13],128 mM
OP(O)O [Sodium phosphite dibasic pentahydrate],IC50 growth inhibition,[1]; [3],< 0.244 mM
same,IC50 growth inhibition,[1]; [4],< 0.244 mM
same,IC50 growth inhibition,[1]; [5],< 0.244 mM
same,IC50 growth inhibition,[1]; [6],2.03 mM
same,IC50 growth inhibition,[1]; [7],354 mM
same,IC50 growth inhibition,[1]; [8],354 mM
same,IC50 growth inhibition,[1]; [9],118 mM
same,IC50 growth inhibition,[1]; [10],< 0.244 mM
same,IC50 growth inhibition,[1]; [11],309 mM
same,IC50 growth inhibition,[2]; [12],> 500 mM
same,IC50 growth inhibition,[2]; [13],197 mM
O=P(O)(O)OP(=O)(O)O [Sodium pyrophosphate dibasic],IC50 growth inhibition,[1]; [3],29.4 mM
same,IC50 growth inhibition,[1]; [4],0.848 mM
same,IC50 growth inhibition,[1]; [5],0.226 mM
same,IC50 growth inhibition,[1]; [6],1.78 mM
same,IC50 growth inhibition,[1]; [7],36.1 mM
same,IC50 growth inhibition,[1]; [8],25.4 mM
same,IC50 growth inhibition,[1]; [9],4.34 mM
same,IC50 growth inhibition,[1]; [10],> 50 mM
same,IC50 growth inhibition,[1]; [11],2.35 mM
same,IC50 growth inhibition,[2]; [12],8.54 mM
same,IC50 growth inhibition,[2]; [13],0.854 mM
O=[Se](=O)([O-])[O-].[Na+].[Na+] [Sodium selenate],IC50 growth inhibition,[1]; [3],< 0.244 mM
same,IC50 growth inhibition,[1]; [4],< 0.244 mM
same,IC50 growth inhibition,[1]; [5],< 0.244 mM
same,IC50 growth inhibition,[1]; [6],290 mM
same,IC50 growth inhibition,[1]; [7],354 mM
same,IC50 growth inhibition,[1]; [8],300 mM
same,IC50 growth inhibition,[1]; [9],189 mM
same,IC50 growth inhibition,[1]; [10],< 0.244 mM
same,IC50 growth inhibition,[1]; [11],62.5 mM
same,IC50 growth inhibition,[2]; [12],251 mM
same,IC50 growth inhibition,[2]; [13],163 mM
O=[Se]([O-])[O-].[Na+].[Na+] [Sodium selenite pentahydrate],IC50 growth inhibition,[1]; [3],< 0.244 mM
same,IC50 growth inhibition,[1]; [4],< 0.244 mM
same,IC50 growth inhibition,[1]; [5],< 0.244 mM
same,IC50 growth inhibition,[1]; [6],< 0.244 mM
same,IC50 growth inhibition,[1]; [7],< 0.244 mM
same,IC50 growth inhibition,[1]; [8],< 0.244 mM
same,IC50 growth inhibition,[1]; [9],250 mM
same,IC50 growth inhibition,[1]; [10],< 0.244 mM
same,IC50 growth inhibition,[1]; [11],< 0.244 mM
same,IC50 growth inhibition,[2]; [12],250 mM
same,IC50 growth inhibition,[2]; [13],112 mM
O.O.O.O.O.O.O.O.O.O.O=S(=O)([O-])[O-].[Na+].[Na+] [Sodium sulfate],IC50 growth inhibition,[1]; [3],356 mM
same,IC50 growth inhibition,[1]; [4],> 500 mM
same,IC50 growth inhibition,[1]; [5],> 500 mM
same,IC50 growth inhibition,[1]; [6],> 500 mM
same,IC50 growth inhibition,[1]; [7],455 mM
same,IC50 growth inhibition,[1]; [8],> 500 mM
same,IC50 growth inhibition,[1]; [9],311 mM
same,IC50 growth inhibition,[1]; [10],384 mM
same,IC50 growth inhibition,[1]; [11],183 mM
same,IC50 growth inhibition,[2]; [12],354 mM
same,IC50 growth inhibition,[2]; [13],317 mM
OP(O)(O)=S [Sodium thiophosphate tribasic hydrate],IC50 growth inhibition,[1]; [3],> 50 mM
same,IC50 growth inhibition,[1]; [4],> 50 mM
same,IC50 growth inhibition,[1]; [5],> 50 mM
same,IC50 growth inhibition,[1]; [6],42.2 mM
same,IC50 growth inhibition,[1]; [7],> 50 mM
same,IC50 growth inhibition,[1]; [8],33.1 mM
same,IC50 growth inhibition,[1]; [9],21 mM
same,IC50 growth inhibition,[1]; [10],> 50 mM
same,IC50 growth inhibition,[1]; [11],> 50 mM
same,IC50 growth inhibition,[2]; [12],> 50 mM
same,IC50 growth inhibition,[2]; [13],> 50 mM
O=S(O)(O)=S [Sodium thiosulfate],IC50 growth inhibition,[1]; [3],318 mM
same,IC50 growth inhibition,[1]; [4],> 500 mM
same,IC50 growth inhibition,[1]; [5],386 mM
same,IC50 growth inhibition,[1]; [6],319 mM
same,IC50 growth inhibition,[1]; [7],363 mM
same,IC50 growth inhibition,[1]; [8],360 mM
same,IC50 growth inhibition,[1]; [9],185 mM
same,IC50 growth inhibition,[1]; [10],355 mM
same,IC50 growth inhibition,[1]; [11],360 mM
same,IC50 growth inhibition,[2]; [12],> 500 mM
same,IC50 growth inhibition,[2]; [13],57.6 mM
O.O.[Na+].[Na+].[O]=[W](=[O])([O-])[O-] [Sodium tungstate dihydrate],IC50 growth inhibition,[1]; [3],< 0.244 mM
same,IC50 growth inhibition,[1]; [4],< 0.244 mM
same,IC50 growth inhibition,[1]; [5],3.31 mM
same,IC50 growth inhibition,[1]; [6],1.17 mM
same,IC50 growth inhibition,[1]; [7],0.539 mM
same,IC50 growth inhibition,[1]; [8],20.5 mM
same,IC50 growth inhibition,[1]; [9],21.3 mM
same,IC50 growth inhibition,[1]; [10],< 0.244 mM
same,IC50 growth inhibition,[1]; [11],237 mM
same,IC50 growth inhibition,[2]; [12],> 500 mM
same,IC50 growth inhibition,[2]; [13],> 500 mM
